Experiment in all cases: relative viability (nuclei count vs DMSO), 5 days (fraction); higher = more cells survive
Compound in the assay “Irinotecan + Dasatinib”: CCc1c2c(nc3ccc(OC(=O)N4CCC(N5CCCCC5)CC4)cc13)-c1cc3c(c(=O)n1C2)COC(=O)[C@]3(O)CC [Irinotecan] + Cc1nc(Nc2ncc(C(=O)Nc3c(C)cccc3Cl)s2)cc(N2CCN(CCO)CC2)n1 [Dasatinib] (partner 0.075 µM)
The essentials:
(§1)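 Relative viability equals treated-well nuclei counts divided by vehicle-well nuclei counts. Counts came from 4× images of lung cancer cell lines grown in 1536-well plates for 5 days after pin-tool dosing on the day after seeding. Dosing used one drug alone or a fixed anchor-drug dose plus five library-drug doses (not always all listed) in √10 steps, and values are medians of duplicate plates.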

Compound in the assay “RU-SKI 43 + Linsitinib”: CC[C@@H](C)CNCC(=O)N1CCC2=C([C@@H]1COC3=CC=CC(=C3)C)C=CS2 [RU-SKI 43] + C[C@]1(O)C[C@@H](c2nc(-c3ccc4ccc(-c5ccccc5)nc4c3)c3c(N)nccn32)C1 [Linsitinib] (partner 1 µM)
A digest of the protocol:
as §1

Compound in the assay “RU-SKI 43 + Tozasertib”: CC[C@@H](C)CNCC(=O)N1CCC2=C([C@@H]1COC3=CC=CC(=C3)C)C=CS2 [RU-SKI 43] + Cc1cc(Nc2cc(N3CCN(C)CC3)nc(Sc3ccc(NC(=O)C4CC4)cc3)n2)n[nH]1 [Tozasertib] (partner 0.1 µM)
A digest of the protocol:
as §1

Compound in the assay “Irinotecan + OSI-027”: CCc1c2c(nc3ccc(OC(=O)N4CCC(N5CCCCC5)CC4)cc13)-c1cc3c(c(=O)n1C2)COC(=O)[C@]3(O)CC [Irinotecan] + COc1cccc2cc(-c3nc([C@H]4CC[C@H](C(=O)O)CC4)n4ncnc(N)c34)[nH]c12 [OSI-027] (partner 0.5 µM)
A digest of the protocol: as §1

For the cell line UMC-11, the relative viability with Irinotecan + Dasatinib (first compound 0.6325 µM) is 0.422; with Irinotecan + Dasatinib (first compound 2 µM) it was 0.372; with Irinotecan + Dasatinib (first compound 6.325 µM), 0.232; with Irinotecan + Dasatinib (first compound 20 µM) it was 0.104; with RU-SKI 43 + Linsitinib (first compound 0.1 µM), 1.11; with RU-SKI 43 + Linsitinib (first compound 0.3162 µM), 1.21. The relative viability in the assay with RU-SKI 43 + Linsitinib (first compound 1 µM) turned out to be 1.07; in the assay with RU-SKI 43 + Linsitinib (first compound 3.162 µM), 1.04; in the assay with RU-SKI 43 + Linsitinib (first compound 10 µM), 1.07; with RU-SKI 43 + Tozasertib (first compound 0.1 µM), 0.204; with RU-SKI 43 + Tozasertib (first compound 0.3162 µM), 0.197; with RU-SKI 43 + Tozasertib (first compound 1 µM) it was 0.19. Moreover, the relative viability was determined as 0.175 with RU-SKI 43 + Tozasertib (first compound 3.162 µM); 0.18 with RU-SKI 43 + Tozasertib (first compound 10 µM); 0.461 with Irinotecan + OSI-027 (first compound 0.6325 µM); 0.475 in the assay with Irinotecan + OSI-027 (first compound 2 µM); 0.279 with Irinotecan + OSI-027 (first compound 6.325 µM); 0.155 in the assay with Irinotecan + OSI-027 (first compound 20 µM).

The record behind these values is the supplement of paper PMC10307832.
